Measurements reported in PMC11762167, “G Protein-Coupled Receptor 17 Inhibits Glucagon-like Peptide-1 Secretion via a Gi/o-Dependent Mechanism in Enteroendocrine Cells” (Biomolecules, 2024).
Each block holds one molecule with its values, some of them ahead of it. Starred links: 1 amine or outer side, 2 acyl side, 3 side chain; linkers in the order of their positions; H or OH if unused. Positions of bridges follow the written chain, without caps; N, C: chain ends. Non-standard residues stand in square brackets, D forms with d. Residues, ends and D or L forms follow the SMILES beside them. No end group written: not given here. X1 = CC(=O)NC(C(=O)OC(C(C)C)C(N[*:1])C(=O)[*:2])C(O)C(C)C; PhLac = O=C(O)[CH](O)Cc1ccccc1; NMeT = CN[CH](C(=O)O)[CH](C)O; NMeA = CN[CH](C)C(=O)O; NMeDha = C=C(NC)C(=O)O

What was measured:
GLUTag cells = assay: GLP-1 secretion from control-transduced or untransduced GLUTag cells; type: cell-based, murine
Description: (§1) GLUTag cells were maintained in Dulbecco’s Modified Eagle Medium (DMEM) supplemented with 10% fetal bovine serum and 1% penicillin–streptomycin in a humidified incubator at 37 °C and 5% CO2. For adenovirus transduction, GLUTag cells were seeded into poly-D-lysine coated 96-well plates or 4-chamber slides. The next day, cells were transduced with adenoviruses (100–1250 viral particles per cell at time of seeding) as indicated. After 24–30 h, adenovirus-containing media was changed to serum-free growth media for overnight serum starvation. The following day, GLUTag cells were used for cAMP or calcium signaling assays, GLP-1 secretion assays, or immunostaining and imaging.
(§2) GLUTag cells were seeded into poly-D-lysine-coated 96-well plates and transduced with adenovirus as specified above and then tested for GLP-1 secretion. Medium was removed and cells were washed two times with GLP-1 secretion buffer (138 mM NaCl, 4.5 mM KCl, 4.2 mM NaHCO3, 2.5 mM CaCl2, 1.2 mM MgCl2, 10 mM HEPES, 1 mM glucose, and 0.1% bovine serum albumin, pH 7.4). Cells were stimulated for 2 h with indicated treatments diluted in GLP-1 secretion buffer for a total volume of 200 µL/well at 37 °C and 5% CO2. Plates were then centrifuged at 300× g for 1 min at 4 °C, and 75 µL of the supernatant was removed and frozen at −80 °C until subsequent GLP-1 quantification. Total GLP-1 was quantified using the Meso Scale Discovery Total GLP-1 V-PLEX kit (Rockville, MD, USA; K1503PD) according to manufacturer’s instructions. For PTX treatment conditions, cells were pretreated with 100 ng/mL PTX overnight. For experiments with YM-254890, cells were pretreated for 15 min at 37 °C and 5% CO2.

hGPR17L [1] = biological target: T1, hGPR17L (Homo sapiens, UniProt Q13304); assay: GLP-1 secretion from GLUTag cells expressing hGPR17L; type: cell-based; parameters: host or cells: GLUTag cells (murine enteroendocrine line), adenoviral transduction
T1 sequence (Q13304 whole entry): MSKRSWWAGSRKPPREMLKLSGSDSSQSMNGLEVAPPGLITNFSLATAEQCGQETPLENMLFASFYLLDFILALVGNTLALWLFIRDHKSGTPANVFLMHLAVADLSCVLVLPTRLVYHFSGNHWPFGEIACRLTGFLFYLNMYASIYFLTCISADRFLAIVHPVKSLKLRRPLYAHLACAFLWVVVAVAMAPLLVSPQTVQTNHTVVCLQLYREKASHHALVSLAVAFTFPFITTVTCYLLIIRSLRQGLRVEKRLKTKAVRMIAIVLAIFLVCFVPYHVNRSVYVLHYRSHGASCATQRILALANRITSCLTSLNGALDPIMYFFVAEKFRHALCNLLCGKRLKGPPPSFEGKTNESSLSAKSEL
Description: as §1, §2

hGPR17L [2] = biological target: T1, hGPR17L; assay: Endpoint cAMP (HTRF) in GLUTag cells expressing hGPR17L; type: cell-based; parameters: host or cells: GLUTag cells (murine enteroendocrine line), adenoviral transduction; conditions: for Predicted (LS) mean diff.: Fig 2B, Forskolin, +Vehicle vs. +100 nM YM-254890
Description: as §1
Endpoint cAMP measurements were conducted as follows. GLUTag cells were seeded into poly-D-lysine-coated 96-well plates and transduced with adenovirus as specified above and then tested for cAMP signaling. Medium was removed and cells were washed with cAMP stimulation buffer (Hanks’ balanced salt solution (HBSS), 20 mM HEPES, pH 7.4) and then incubated in cAMP stimulation buffer for 30 min at 37 °C and 5% CO2. Cells were then treated for 30 min with agonist and forskolin in the presence of 500 µM IBMX at 37 °C and 5% CO2. Stimulation buffer was then decanted, and cAMP lysis buffer (50 mM HEPES, 10 mM CaCl2, 0.35% Triton X-100, and 500 µM IBMX) was added and shaken at 700 rpm for 1 h. Lysate was transferred to a 384-well plate, and the cAMP levels were quantified using the Cisbio HTRF cAMP (Gi kit; Revvity, Waltham, MA, USA) according to the manufacturer’s protocol.

hGPR17L [3] = biological target: T1, hGPR17L; assay: Calcium flux (Calcium 6) in GLUTag cells expressing hGPR17L; type: cell-based; parameters: host or cells: GLUTag cells (murine enteroendocrine line), adenoviral transduction
Description: as §1
GLUTag cells were seeded into black, clear bottom, poly-D-lysine-coated 96-well plates. Cells were transduced and serum starved as specified above. Growth medium was then replaced with 100 μL/well assay buffer (HBSS, 20 mM HEPES, pH 7.4) and 100 μL/well Calcium 6 loading dye (R8190; Molecular Devices, San Jose, CA, USA). During dye loading, cells were incubated at 37 °C and 5% CO2 for 2 h. MDL29,951 or KCl was added to the wells and fluorescence (485 nm excitation, 525 nm emission, and 515 nm automatic emission cutoff) was measured using a Molecular Devices FlexStation3 (Molecular Devices) at 37 °C. For experiments with PTX, cells were pretreated with 100 ng/mL PTX overnight and 100 ng/mL PTX was included with Calcium 6 loading dye for calcium flux assays. For experiments with YM-254890, cells were pretreated for 30 min at 37 °C.

Molecule: Cc1onc(-c2ccccc2Cl)c1C(=O)N(C)c1ccc(Cl)cc1 [GPBAR-A]
increase in GLP-1 secretion (GLUTag cells; 10 µM GPBAR-A, control transduction condition): 2.67 ± 0.17 fold

effect on MDL29,951-mediated inhibition of F/I-stimulated GLP-1 secretion (hGPR17L [1]; 10 µM HAMI3379): significantly attenuated
Molecule: O=C(O)c1ccc(OCCCc2ccc(OCCCCOC3CCCCC3)cc2)c(C(=O)NC2CCCC(C(=O)O)C2)c1 (centres unmarked) [HAMI3379]

cAMP levels in response to PGE2 stimulation, % of the control-transduced cells (hGPR17L [2]; 300 nM PGE2, hGPR17L-expressing cells): 83 ± 5.5%
Molecule: CCCCC[C@H](O)/C=C/[C@H]1[C@H](O)CC(=O)[C@@H]1C/C=C\CCCC(=O)O [PGE2, prostaglandin E2]
increase in GLP-1 secretion (GLUTag cells; 300 nM PGE2, control transduction condition): 1.90 ± 0.06 fold

Molecule: CCCCCCCCCCCCCC(=O)O[C@@H]1[C@@H](C)[C@@]2(O)[C@@H](C=C(CO)C[C@]3(O)C(=O)C(C)=C[C@@H]23)[C@@H]2C(C)(C)[C@]12OC(C)=O [PMA, phorbol 12-myristate 13-acetate]
increase in GLP-1 secretion (GLUTag cells; 300 nM PMA, control transduction condition): 4.14 ± 0.18 fold

effect on basal cAMP (hGPR17L [2]; 100 ng/mL PTX or 100 nM YM-254890, control- or hGPR17L-transduced): no effects | Predicted (LS) mean diff. (hGPR17L [2]; log [MDL29,951] (M) -4.0): 17.41 | Predicted (LS) mean diff. (hGPR17L [2]; log [MDL29,951] (M) -4.6): 19.49 | Predicted (LS) mean diff. (hGPR17L [2]; log [MDL29,951] (M) -5.2): 17.04 | Predicted (LS) mean diff. (hGPR17L [2]; log [MDL29,951] (M) -5.8): 11.34 | Predicted (LS) mean diff. (hGPR17L [2]; log [MDL29,951] (M) -6.4): 5.843 | Predicted (LS) mean diff. (hGPR17L [2]; log [MDL29,951] (M) -7.0): 2.922 | Predicted (LS) mean diff. (hGPR17L [2]; log [MDL29,951] (M) -7.6): 8.08 | Predicted (LS) mean diff. (hGPR17L [2]; log [MDL29,951] (M) -8.2): 13.01 | Predicted (LS) mean diff. (hGPR17L [2]; log [MDL29,951] (M) -8.8): 10.15 | Predicted (LS) mean diff. (hGPR17L [2]; log [MDL29,951] (M) -9.4): 6.783 | effect on 15 mM KCl-stimulated calcium mobilization (hGPR17L [3]; 100 ng/mL PTX or 100 nM YM-254890, Figure 2D): no effect | concentration giving robust inhibition of MDL29,951-stimulated calcium mobilization (hGPR17L [3]; 1 µM MDL29,951, concentration-response): ~ 100 nM | effect on 15 mM KCl-stimulated calcium flux (hGPR17L [3]; YM-254890 concentration-response, Figure S5D): no effect | effect on PMA-stimulated GLP-1 secretion (hGPR17L [1]; 100 nM YM-254890, 300 nM PMA, control or hGPR17L-expressing cells): no effect | effect on MDL29,951-mediated inhibition of PMA-stimulated GLP-1 secretion (hGPR17L [1]; 100 nM YM-254890, 100 µM MDL29,951, 300 nM PMA): no effect | effect on F/I-stimulated GLP-1 secretion (hGPR17L [1]; 3 µM YM-254890, hGPR17L-expressing cells): strong inhibitory effects
Molecule: C=C1C(=O)NC(C)C(=O)N(C)C(C)C(=O)NC(C(OC(=O)C(NC(C)=O)C(O)C(C)C)C(C)C)C(=O)N(C)C(C(C)OC)C(=O)OC(C)C(NC(C)=O)C(=O)OC(Cc2ccccc2)C(=O)N1C (centres unmarked) [YM-254890] (Ac-T[PhLac][NMeDha]A[NMeA][X1][NMeT](Me); ester 1-C; configuration not given here)
effect on F/I-stimulated GLP-1 secretion (GLUTag cells; 100 nM YM-254890, GLUTag cells): inhibited | effect on F/I-stimulated GLP-1 secretion (GLUTag cells; 3 µM YM-254890, control cells): strong inhibitory effects | effect on PMA-stimulated GLP-1 secretion (GLUTag cells; YM-254890 concentration–response, 300 nM PMA): no effect

Molecule: somatostatin (AGCKNFFWKTFTSC; ends and bridges not checked; cysteine pairing not given here; UniProt P61278 103-116, looked up) [SST, Endogenous somatostatin receptor agonist]
effect on F/I-stimulated GLP-1 secretion (GLUTag cells; 1 µM SST, control- and hGPR17L-transduced cells (Figure S4A,B)): inhibited
